Tests used:
female Wistar rats = test: Freund's complete adjuvant arthritis model, paw pressure test (Randall Selitto), vocalisation; assay type: in vivo, rat
Experimental: Experiments were performed in female Wistar rats weighing 80-90 g at the beginning of the experiments. Arthritis was induced by intraplantar injection of Freund's complete adjuvant (FCA, 0.1 ml) to one hindpaw. Drugs were given on day 11 after FCA injection in animals which developed systemic secondary arthritic symptoms as assessed by visual inspection. Mechanical hyperalgesia was than acutely applied and measured by means of the paw pressure test (Randall Selitto method) and supraspinal vocalisation as the biological endpoint of the nociceptive reaction. Measurements were taken at 0 min (before drug injection) and 15 min, 30 min, 60 min, and 24 h after drug injection and all data are expressed as percent of maximal possible effect (% MPE).
10 groups of 15 rats were used and received the following treatments: […]

rat [1] = test: Randall-Selitto paw pressure test, carrageenan induced acute inflammation; assay type: in vivo; conditions: for Mechanical nociceptive threshold pressure, Carrageenan + SPM 927: ±SEM, n=12
Experimental: Further potential anti-nociceptive efficacy of SPM 927 was assessed in a rat experimental model of acute inflammation using a modified Randall and Selitto procedure. Acute inflammation is induced by injection of s.c. carrageenan (1.0 mg in 0.1 ml saline/paw), an unspecific inflammatory agent, into the plantar surface of one hind paw of the animal. Mechanical sensitivity and nociceptive thresholds were measured using an algesimeter device that exerts a constantly increasing mechanical force (10 mm Hg/sec) on the inflammed hind paw. The mechanical nociceptive threshold is defined as the pressure (mm Hg) at which the rat vocalises or struggles or withdraws its paw. Since its original description, the Randall and Selitto mechanical paw pressure test has become a standard method for testing the efficacy of new compounds for alleviating acute inflammatory pain.
SPM 927 or vehicle (sterile water, 0.04 […]) was administered i.p. 1 hr and 45 minutes after carrageenan, meaning 15 to 20 minutes before the start of behavioural testing. As compared to the response threshold of vehicle-treated controls, an increase in the pressure required to produce a behavioural response is interpreted as antinociception.

rat [2] = test: Formalin test, rat: prolonged inflammatory pain (weighted pain score); assay type: in vivo; conditions: i.p. just prior to formalin injection, 5-40 mg/kg
Experimental: The formalin test is a chemically-induced tonic pain model in which biphasic changes of nociceptive behaviour are assessed and spinal/supraspinal plasticity of nociception is considered as a molecular basis for neuropathic pain particularly during the second (=late) phase of the test, during which most clinically used drugs against neuropathic pain are active.
The compound was tested for anti-nociceptive properties by use of the weighted behavioural scoring method: Freely moving animals underwent observational assessment of the position of the left hind paw according to a rating score scaled 0-3 before and 10, 20, 30 and 40 min after injection of 0.05 ml of sterile 2.5% formalin under the skin on the dorsal surface of the paw.

rat [3] = test: Chronic constriction injury (CCI, Bennett-model), thermal hyperalgesia (Hargreaves); assay type: in vivo; conditions: for Withdrawal latency, Post-operative + SPM 927: ligated hind paw, radiant heat, ±SEM
Experimental: (§1) The effectiveness of SPM 927 in reducing spontaneous chronic pain, mechanical allodynia, and thermal hyperalgesia was tested using the chronic constriction injury (CCI) model of peripheral neuropathy, one of the best characterised in vivo animal models used to study chronic pain due to peripheral nerve injury. In this model, loose ligatures are placed around the sciatic nerve, which produces axonal swelling and a partial deafferentation manifested as a significant but incomplete loss of axons in the distal portion of the peripheral nerve. One of the prominent behaviours seen following sciatic nerve ligation is the appearance of hind paw guarding, thought to be an indication of an ongoing spontaneous chronic pain. Support for this idea is derived from reports of increased spinal cord neural activity, and increased spontaneous neuronal discharge in spinothalamic tract neurons and in the ventrobasal thalamus in the absence of overt peripheral stimulation. In addition to the appearance of spontaneous pain behaviours, several abnormalities in stimulus evoked pain occur as a result of CCI, including thermal hyperalgesia and mechanical allodynia. The development of these abnormal stimulus-evoked pains has also been reported as occurring in areas outside the territory of the damaged nerve, areas innervated by uninjured nerves.
Behavioural tests for thermal hyperalgesia, and mechanical allodynia were conducted to evaluate different components of neuropathic pain. Baseline data for each test was collected prior to any experimental procedure; in addition, all animals were tested for the development of chronic pain behaviours 13-25 days after CCI surgery 1 day prior to the day of vehicle (0.04 ml sterile water/10 g body weight) or drug administration and after vehicle or drug administration. The sequence of the pain-related behaviour tests was (1) thermal hyperalgesia, (2) mechanical allodynia in order to minimise the influence of one test on the result of the next. The testing procedures and results are presented separately for each aspect of chronic pain. Either 0 (vehicle, 0.04 ml/10 g body weight), 5, 10, 20 or 40 mg/kg of SPM 927 (n=7-23/group) was administered i.p. 15 minutes before the first behavioural test.
(1) Thermal hyperalgesia was assessed by means of withdrawal latency in response to radiant heat applied to the subplantar surface of the ligated rat hind paw according to Hargreaves. As compared to the baseline latency (s), a significant decrease in the (postoperative) latency of foot withdrawal in response to the thermal stimulus was interpreted as indicating the presence of thermal hyperalgesia following chronic constriction injury.

rat [4] = test: Chronic constriction injury (CCI, Bennett-model), mechanical allodynia (Von Frey pressure algometer); assay type: in vivo; conditions: for Pressure to elicit foot withdrawal, Post-operative + SPM 927: ligated hind paw, ±SEM
Experimental: as §1
Behavioural tests for thermal hyperalgesia, and mechanical allodynia were conducted to evaluate different components of neuropathic pain. Baseline data for each test was collected prior to any experimental procedure; in addition, all animals were tested for the development of chronic pain behaviours 13-25 days after CCI surgery 1 day prior to the day of vehicle (0.04 ml sterile water/10 g body weight) or drug administration and after vehicle or drug administration. […]
Mechanical sensitivity and allodynia of the ligated rat hind paw was quantified by brisk foot withdrawal in response to normally innocuous mechanical stimuli as described previously. […]

CN1CC[C@]23c4c5ccc(O)c4O[C@H]2[C@@H](O)C=C[C@H]3[C@H]1C5 [morphine, reference compound]
Antinociceptive effect of positive control (female Wistar rats; 10 mg/kg, arthritic and normal animals): clear antinociceptive effects in arthritic and normal animals
% MPE (female Wistar rats; FCA rats (disease condition), 10 mg/kg, 15 min): +100 % MPE
% MPE (female Wistar rats; FCA rats (disease condition), 10 mg/kg, 30 min): +100 % MPE
% MPE (female Wistar rats; FCA rats (disease condition), 10 mg/kg, 60 min): +100 % MPE
% MPE (female Wistar rats; FCA rats (disease condition), 10 mg/kg, 24 h): −7 % MPE
% MPE (female Wistar rats; no FCA (normal condition), 10 mg/kg, 15 min): +100 % MPE
% MPE (female Wistar rats; no FCA (normal condition), 10 mg/kg, 30 min): +100 % MPE
% MPE (female Wistar rats; no FCA (normal condition), 10 mg/kg, 60 min): +100 % MPE
% MPE (female Wistar rats; no FCA (normal condition), 10 mg/kg, 24 h): +2 % MPE

COC[C@@H](NC(C)=O)C(=O)NCc1ccccc1 [SPM 927, (R)-2-acetamide-N-benzyl-3-methoxypropionamide]
Mechanical nociceptive threshold pressure, Carrageenan + SPM 927 (rat [1]; 20 mg/kg i.p. 1 hr 45 min after carrageenan): 164.8 ± 13.5 mm Hg
Mechanical nociceptive threshold pressure, Carrageenan + SPM 927 (rat [1]; 40 mg/kg i.p. 1 hr 45 min after carrageenan): 232.7 ± 22.0 mm Hg
Effect on carrageenan induced mechanical hyperalgesia (rat [1]; 20 and 40 mg/kg i.p.): markedly reduced the mechanical hyperalgesia induced by carrageenan
Effect on formalin-induced nociceptive behaviour (rat [2]): dose dependent reduction of the formalin-induced tonic inflammatory nociceptive behaviour
Anti-inflammatory effect in FCA arthritis (female Wistar rats; 30 mg/kg early (with FCA)): no anti-inflammatory effects
Anti-nociceptive effect in FCA arthritis (female Wistar rats; 5-40 mg/kg acute, significant at 30 and 40 mg/kg): dose-dependent anti-nociceptive
% MPE (female Wistar rats; FCA rats, 5 mg/kg acute (day 11), 15 min): −5 % MPE
% MPE (female Wistar rats; FCA rats, 5 mg/kg acute (day 11), 30 min): −5 % MPE
% MPE (female Wistar rats; FCA rats, 5 mg/kg acute (day 11), 60 min): −12 % MPE
% MPE (female Wistar rats; FCA rats, 5 mg/kg acute (day 11), 24 h): −14 % MPE
% MPE (female Wistar rats; FCA rats, 10 mg/kg acute (day 11), 15 min): +7 % MPE
% MPE (female Wistar rats; FCA rats, 10 mg/kg acute (day 11), 30 min): −2 % MPE
% MPE (female Wistar rats; FCA rats, 10 mg/kg acute (day 11), 60 min): 0 % MPE
% MPE (female Wistar rats; FCA rats, 10 mg/kg acute (day 11), 24 h): −5 % MPE
% MPE (female Wistar rats; FCA rats, 20 mg/kg acute (day 11), 15 min): +1 % MPE
% MPE (female Wistar rats; FCA rats, 20 mg/kg acute (day 11), 30 min): −20 % MPE
% MPE (female Wistar rats; FCA rats, 20 mg/kg acute (day 11), 60 min): −9 % MPE
% MPE (female Wistar rats; FCA rats, 20 mg/kg acute (day 11), 24 h): −20 % MPE
% MPE (female Wistar rats; FCA rats, 30 mg/kg acute (day 11), 15 min): +58 % MPE
% MPE (female Wistar rats; FCA rats, 30 mg/kg acute (day 11), 30 min): +33 % MPE
% MPE (female Wistar rats; FCA rats, 30 mg/kg acute (day 11), 60 min): +16 % MPE
% MPE (female Wistar rats; FCA rats, 30 mg/kg acute (day 11), 24 h): −8 % MPE
% MPE (female Wistar rats; FCA rats, 30 mg/kg early (with FCA), anti-inflammatory effects group, 15 min): −14 % MPE
% MPE (female Wistar rats; FCA rats, 30 mg/kg early (with FCA), anti-inflammatory effects group, 30 min): −7 % MPE
% MPE (female Wistar rats; FCA rats, 30 mg/kg early (with FCA), anti-inflammatory effects group, 60 min): −3 % MPE
% MPE (female Wistar rats; FCA rats, 30 mg/kg early (with FCA), anti-inflammatory effects group, 24 h): −11 % MPE
% MPE (female Wistar rats; FCA rats, 40 mg/kg acute (day 11), 15 min): +100 % MPE
% MPE (female Wistar rats; FCA rats, 40 mg/kg acute (day 11), 30 min): +100 % MPE
% MPE (female Wistar rats; FCA rats, 40 mg/kg acute (day 11), 60 min): +14 % MPE
% MPE (female Wistar rats; FCA rats, 40 mg/kg acute (day 11), 24 h): −7 % MPE
Dose at which anti-nociceptive effects started (female Wistar rats; FCA rats, most prominent during first 30 min): 30 mg/kg
Withdrawal latency, Post-operative + SPM 927 (rat [3]; 5 mg/kg i.p.): 9.1 ± 0.97 s
Withdrawal latency, Post-operative + SPM 927 (rat [3]; 10 mg/kg i.p.): 8.0 ± 0.58 s
Dose at which maximum effect on thermal hyperalgesia was seen (rat [3]; i.p.): 20 mg/kg
Effect on CCI-induced thermal hyperalgesia (rat [3]; i.p., significant only at 20 and 40 mg/kg): dose dependently reduced chronic constriction injury-induced thermal hyperalgesia
Pressure to elicit foot withdrawal, Post-operative + SPM 927 (rat [4]; 20 mg/kg i.p.): 39.5 ± 3.62 g/mm^2
Pressure to elicit foot withdrawal, Post-operative + SPM 927 (rat [4]; 40 mg/kg i.p.): 42.9 ± 5.47 g/mm^2
Effect on mechanical allodynia induced by unilateral nerve ligation (rat [4]; i.p., 5-40 mg/kg): dose dependently reduced the intensity of mechanical allodynia
